Values quoted from earlier work in patent US20170049679A1, “ORAL AND DENTAL HYGIENE AND CLEANING AGENTS FOR REDUCING TOOTH DISCOLORATION” (Henkel AG & Co. KGaA, priority 2014, published 2017).
Like-named read-outs stand apart in the source and are kept apart here. Each block holds one compound with its values, some of them ahead of it.

Compound: [Cl-].[Cl-].[Zn+2] [Zinc chloride]
- Solubility (25° C.): 4320 mg/mL

- Solubility (20° C.): 4 mg/mL
Compound: Zinc acetylacetonate

- Solubility (in words) (20° C.): Nearly insoluble
Compound: Zinc hydroxycarbonate
